Data: the NIST ThermoML archive (doi:10.1016/j.jct.2009.11.020)
Numbers after ± are expanded uncertainties.

Legend:
[1] = 293.15 K; 101.33 kPa; Liquid; Vibrating tube method
[2] = refractive index (Na D-line) (dimensionless); details: 293.15 K; 101.33 kPa; Liquid; Standard Abbe refractometry

Row | mass density [1] [kg/m3] | refractive index [2] | Structure (SMILES)
1 | 1261.3 ± 0.5 | 1.474 ± 0.001 | OCC(O)CO [glycerol]
2 | 791.03 ± 0.23 | 1.328 ± 0.001 | CO [methanol]
3 |  | 1.333 ± 0.001 | O [water]
